Data taken from patent publication US20210292306A1, “NOVEL INDOLE DERIVATIVE AND ANTI-CANCER CONPOSITION CONTAINING SAME” (KOREA RESEARCH INSTITUTE OF BIOSCIENCE AND BIOTECHNOLOGY, priority 2016, published 2021).

Experiments:
HeLa cells = assay: Anti-proliferative activity in HeLa cell line (MTT assay); assay type: cell-based; details: Homo sapiens, 96 h, 4 days, mean of two repeated assays
Description: HeLa cells (ATCC, USA), which are a human cervical cancer cell line, were dispensed into a 96-well plate at 2×10^3 cells/well, and the cells were treated with DMSO or the indole derivatives of the present invention, and then allowed to grow for 4 days. And then, MTT (3-(4,5-Dimethylthiazol-2-yl)-2,5-diphenyltetrazolium bromide) reagent was added to the wells at 10 μl/well. After 2 hours, the absorbance was measured at “OD 450” and statistical values were obtained using the plizm6 program. The data represent mean values of the results of two repeated assays (Table 1).

K562 [1] = assay: Anti-proliferative activity, multiple drug resistance study (MTT assay), parent line; assay type: cell-based; details: Homo sapiens, 96 h, 4 days, mean of three assays
Description: (§1) HeLa cells (ATCC, USA), which are a human cervical cancer cell line, were dispensed into a 96-well plate at 2×10^3 cells/well, and the cells were treated with DMSO or the indole derivatives of the present invention, and then allowed to grow for 4 days. And then, MTT (3-(4,5-Dimethylthiazol-2-yl)-2,5-diphenyltetrazolium bromide) reagent was added to the wells at 10 μl/well. After 2 hours, the absorbance was measured at “OD 450” and statistical values were obtained using the plizm6 program. The data represent mean values of the results of two repeated assays (Table 1). Specifically, K562 and MCF7 (Bio Evaluation Center, Korea Research Institute of Bioscience and Biotechnology, Korea), and K562/ADR and MCF7/ADR (Bio Evaluation Center, Korea Research Institute of Bioscience and Biotechnology, Korea), which are multiple drug-resistant cell lines of the above mentioned cell lines, respectively, were cultured on a microtiter plate at 1-3×10^3 cells/well.

MCF7 [2] = assay: as above; assay type: cell-based; details: Homo sapiens, 96 h, 4 days, mean of three assays
Description: as §1

K562/ADR = assay: Anti-proliferative activity in cancer cells showing multiple drug resistance (MTT assay); assay type: cell-based
Description: as §1

MCF7/ADR = assay: as above; assay type: cell-based
Description: as §1

A431 = assay: Effect on cell cycle progression (propidium iodine, FACS); assay type: cell-based, human; details: A431, 17 hours
Description: (§2) Several cancer cell lines were cultured on a 12 well plate (3×10^4 cells/well), and treated with DMSO or WCI-1031, an indole derivative of the present invention, for 17 hours, and then added with a propidium iodine dye to stain the cellular DNA, and subjected to measurement using FACS. The concentrations at which cells gathered in the G2/M phase and numbers of the cells represented as percentages were shown (Table 5).

HeLa = assay: as above; assay type: cell-based, human; details: 17 hours
Description: as §2

A172 = assay: as above; assay type: cell-based; details: A172, 17 hours
Description: as §2

EL4 = assay: as above; assay type: cell-based; details: EL4, 17 hours
Description: as §2

Hep3B = assay: as above; assay type: cell-based; details: 17 hours
Description: as §2

K562 [3] = assay: as above; assay type: cell-based; details: K562, 17 hours
Description: as §2

MCF7 ADR = assay: as above; assay type: cell-based; details: 17 hours
Description: as §2

MCF7 [4] = assay: as above; assay type: cell-based; details: MCF7, 17 hours
Description: as §2

NCIH-125 = assay: as above; assay type: cell-based; details: NCIH-125, 17 hours
Description: as §2

PC3 = assay: as above; assay type: cell-based; details: PC3, 17 hours
Description: as §2

[5] = tested on: Several cancer cell lines; assay: Effect on cell cycle progression, summary over the cell lines of Table 5; assay type: cell-based; details: summary over the cell lines of Table 5, 17 hours
Description: as §2

[6] = tested on: human-derived skin cancer cell line (A431); assay: Anti-cancer effect in human-derived skin cancer cell (A431) implantation nude mouse model; assay type: in vivo, BALB/C female nude mouse; details: for tumor growth inhibition: days 0-23, last day (day 23), vs solvent control; for tumor weight reduction: excised A431 tumors weighed
Description: The human cancer cell line A431 which was kept frozen in liquid nitrogen was thawed and cell culture was conducted. Cells were cultured in a CO2 incubator (Forma, USA) at 37° C. and 5% CO2 for an appropriate period of time. On the last day of culture, all cancer cells were collected and counted and the cell concentration was adjusted to 1×10^7 cells/ml using serum free media. The culture solution thus prepared was injected subcutaneously in the axillary region between the scapula and chest wall in an amount of 0.3 ml per BALB/C female nude mouse (5 weeks old, Nara Biotech) (3×10^6 cells/mouse). […] To examine the toxicity levels of the repeated intraperitoneal administration of WCI-1031 to A431 cancer cell implantation nude mice, general symptoms and weight changes of the animals were observed during the administration period. […] On day 23 after the start of the drug administration, blood was taken from the mice through ophthalmic veins 2 hours after the last administration, and the mice were sacrificed using CO2 gas. Then the mice were photographed and the tumors was isolated and weighed in a chemical balance. After taking photographs, each tumor was divided in half, and the resultant tumors were fixed to liquid nitrogen and formalin, respectively.

[7] = Stability in blood plasma after intravenous injection; assay type: in vivo; details: plasma concentration over time (FIG. 7)
Description: In order to examine the stability of the indole derivative of the present invention in vivo, the compound of Example 1 (WCI-1031) was injected intravenously and the plasma concentration was observed over time (FIG. 7).

[8] = Maximum absorbable dose in human (Table 6); details: for MAD (maximum absorbable dose in human): SIWV 250 ml, SITT 270

COC(=O)Cn1c(C)c(/C=N/NC(=O)c2cc3c(ccc4ccccc43)o2)c2ccccc21 [WCI-1031, methyl (E)-2-(2-methyl-3-((2-(naphtho[2,1-b]furan-2-carbonyl) hydrazono)methyl)-1H-indole-1-yl)acetate]
IC50 (HeLa cells): 653 nM | IC50 (K562 [1]): 532 nM | IC50 (MCF7 [2]): 1320 nM | IC50 (K562/ADR; Homo sapiens, 96 h, K562/ADR multiple drug-resistant line, 4 days, MTT, mean of three assays): 318 nM | Resistance factor (K562/ADR; ratio of IC50 K562/ADR to IC50 K562): 0.60 | IC50 (MCF7/ADR; Homo sapiens, NCI/ADR-RES, 96 h, MCF7/ADR multiple drug-resistant line, 4 days, MTT, mean of three assays): 481 nM | Resistance factor (MCF7/ADR; ratio of IC50 MCF7/ADR to IC50 MCF7): 0.36 | effect μM (concentration at which cells gathered in the G2/M phase) (A431): 0.5 µM | % of G2/M (A431; at the effect concentration): 66.32% | effect μM (concentration at which cells gathered in the G2/M phase) (HeLa): 0.5 µM | % of G2/M (HeLa; at the effect concentration): 82.36% | effect μM (concentration at which cells gathered in the G2/M phase) (A172): 1.0 µM | % of G2/M (A172; at the effect concentration): 70.10% | effect μM (concentration at which cells gathered in the G2/M phase) (EL4): 0.5 µM | % of G2/M (EL4; at the effect concentration): 50.84% | effect μM (concentration at which cells gathered in the G2/M phase) (Hep3B): 0.5 µM | % of G2/M (Hep3B; at the effect concentration): 68.13% | effect μM (concentration at which cells gathered in the G2/M phase) (K562 [3]): 0.5 µM | % of G2/M (K562 [3]; at the effect concentration): 76.72% | effect μM (concentration at which cells gathered in the G2/M phase) (MCF7 ADR): 0.5 µM | % of G2/M (MCF7 ADR; at the effect concentration): 52.37% | effect μM (concentration at which cells gathered in the G2/M phase) (MCF7 [4]): 0.5 µM | % of G2/M (MCF7 [4]; at the effect concentration): 59.08% | effect μM (concentration at which cells gathered in the G2/M phase) (NCIH-125): 1.0 µM | % of G2/M (NCIH-125; at the effect concentration): 48.10% | effect μM (concentration at which cells gathered in the G2/M phase) (PC3): 0.5 µM | % of G2/M (PC3; at the effect concentration): 65.35% | numbers of the cells in the G2/M phase [5]: ≥ 50% | tumor growth inhibition ([6]; 10 mg/kg): 9.3% | tumor weight reduction ([6]; 10 mg/kg): 10.7% | tumor growth inhibition ([6]; 20 mg/kg, p<0.001): 37.2% | tumor weight reduction ([6]; 20 mg/kg, p<0.001): 38.0% | stability in the blood plasma [7]: excellent | Ka (intestinal absorption rate constant) ([8]; pH 6.5): 0.03 min⁻¹ | MAD (maximum absorbable dose in human) ([8]; pH 6.5): 1.8 mg | Ka (intestinal absorption rate constant) ([8]; pH 7.4): 0.03 min⁻¹ | MAD (maximum absorbable dose in human) ([8]; pH 7.4): 0.8 mg
